Assay results from US11412737B2, “Mixtures of beflubutamid or optically enriched forms thereof with a second herbicide” (FMC Corporation, priority 2016, dated 2022).

Key:
Hemp sesbania (SEHE8) = assay: pre-emergence test, weed control; assay type: in vivo; conditions: pre-emergent, 28 DAT; BFL at 187.5 g, PYX at 90 g, combination of both
In short: (§1)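 Pre-emergence; seeds in furrows in topsoil flats, watered before spraying. Moving sprayer, 30 gal/acre, nozzle 10.5 in. 4 flats per rate; greenhouse. Rated 21 DAT (wheat), 28 DAT (all species); 0–100 % control vs. untreated, mean of reps.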

velvetleaf (IPOHE) = assay: pre-emergence test, weed control; assay type: in vivo; conditions: pre-emergent, 21 DAT, rate g ai/ha by row: r4 94, r5 125, r6 250, r7 125, r8 250, r9 500, r10 94+125, r11 125+125, r12 94+250, r13 125+250, r14 94+500, r15 125+500
Large crabgrass (DIGSA) = assay: pre-emergence test, weed control; assay type: in vivo; conditions: pre-emergent, 28 DAT; rate g ai/ha by row: r4 94, r5 50, r6 100, r7 52.5, r8 70, r9 94+52.5, r10 94+70, r11 50+52.5, r12 50+70, r13 100+52.5, r14 100+70
In short: as §1

beggerticks (BIDPI) = assay: post-emergence test, weed control; assay type: in vivo, Bidens pilosa; conditions: post-emergent, 28 DAT, COC 1%, rate g ai/ha by row: r5 94, r6 125, r7 250, r8 1.25, r9 2.5, r10 5, r11 94+1.25, r13 125+1.25, r15 94+2.5, r17 125+2.5, r19 94+5, r21 125+5
Description: Test compositions containing the test compounds were diluted with water to provide the appropriate test rate concentrations.
For post-emergence testing, seeds of each species for each rate of application of each herbicide solution were planted in 7.5 cm×7.5 cm plastic pots filled with potting soil. The seeds were germinated and the resulting plants were allowed to grow in a greenhouse until they reached a growth stage, such as height, suitable for testing. […] Pots of post-emergent treated plants were returned to the greenhouse and not watered for 24 hours after treatment. Thereafter they were regularly watered and fertilized for the duration of the test.
The control of weeds was evaluated in each experimental test at 21 for wheat and 28 days after treatment (DAT) for all species. […] The rating system is as follows in Table 1.

Yellow foxtail (SETLU) = assay: pre-emergence test, weed control; assay type: in vivo; conditions: pre-emergent, 28 DAT, (−)-BFL >95% e.e., rate g ai/ha by row: r6 62, r7 125, r8 125, r9 250, r10 445, r11 890, r12 45, r13 90, r14 62+125, r15 125+125, r16 62+250, r17 125+250, r18 62+445, r19 125+445, r20 62+890, r21 125+890, r22 62+45, r23 125+45, r24 62+90, r25 125+90
In short: as §1

SMILES	control of hemp sesbania (Hemp sesbania (SEHE8))	percentage of weed control, Morningglory IPOHE (velvetleaf (IPOHE); 94 g ai/ha)	percentage of weed control, Morningglory IPOHE (velvetleaf (IPOHE); 250 g ai/ha)	percentage of weed control, DIGSA (Large crabgrass (DIGSA))	percentage of weed control, Beggerticks BIDPI (beggerticks (BIDPI); BFL at 94 g ai/ha)	percentage of weed control, Beggerticks BIDPI (beggerticks (BIDPI); BFL at 125 g ai/ha)	percentage of weed control, SETLU (Yellow foxtail (SETLU); 125 g ai/ha)	percentage of weed control, SETLU (Yellow foxtail (SETLU); 250 g ai/ha)
CCC(Oc1ccc(F)c(C(F)(F)F)c1)C(=O)NCc1ccccc1 (racemic) [BFL, 2-[4-fluoro-3-(trifluoromethyl)phenoxy]-N-(phenylmethyl)butanamide]	28%	10%	8%	25%	5%	10%		
CC1(C)CON(Cc2ccc(Cl)cc2Cl)C1=O [DCI, 2-(2,4-dichlorophenyl)methyl-4,4-dimethyl-3-isoxazolidinone]							75%	96%
